According to patent US20120207763A1, “PYRROLOPYRIMIDINE COMPOUNDS AND THEIR USES” (ASTEX THERAPEUTICS LIMITED, priority 2006, published 2012):
Where two headings read alike, the source gives them in different places.

Tests used:
[1] = biological target: CDK2/Cyclin-A kinase complex (Homo sapiens, UniProt P24941); test: CDK2 IMAP fluorescence polarization assay; type: biochemical
Description: In order to test the CDK2 activity of the compounds of the invention, the CDK2 assay is a flourescence polarization assay, where the enzyme is a purified active CDK2/Cyclin-A kinase complex and the substrate is a synthesized peptide derived from Histone H1. This assay utilizes the IMAP technology from Molecular Devices. The active CDK2/Cyclin-A complex phosphorylates the peptide substrate, which is conjugated with the TAMRA tag. The phosphorylated site is then recognized by a metal containing molecule that interacts with the TAMRA tag to induce a high flourescence polarization. The compounds that inhibit the CDK2 kinase activity would inhibit the flourescence output of the assay.

CDK4 = CDK4 (Homo sapiens, UniProt P11802); test: CDK4 HTRF assay; type: biochemical; conditions: Table E; read-out: CDK4 HTRF/IC50 [umol l − 1]
Chain of CDK4 (P11802 whole entry): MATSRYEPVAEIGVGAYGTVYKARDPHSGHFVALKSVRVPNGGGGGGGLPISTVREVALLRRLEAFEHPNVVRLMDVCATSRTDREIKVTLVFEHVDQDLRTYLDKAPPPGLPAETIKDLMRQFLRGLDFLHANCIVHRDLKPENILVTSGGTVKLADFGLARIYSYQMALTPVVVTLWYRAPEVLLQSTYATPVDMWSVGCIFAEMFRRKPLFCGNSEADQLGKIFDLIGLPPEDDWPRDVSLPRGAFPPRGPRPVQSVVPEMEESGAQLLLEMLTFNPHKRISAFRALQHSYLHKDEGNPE
Chain of CDK4 (P24385 whole entry partner): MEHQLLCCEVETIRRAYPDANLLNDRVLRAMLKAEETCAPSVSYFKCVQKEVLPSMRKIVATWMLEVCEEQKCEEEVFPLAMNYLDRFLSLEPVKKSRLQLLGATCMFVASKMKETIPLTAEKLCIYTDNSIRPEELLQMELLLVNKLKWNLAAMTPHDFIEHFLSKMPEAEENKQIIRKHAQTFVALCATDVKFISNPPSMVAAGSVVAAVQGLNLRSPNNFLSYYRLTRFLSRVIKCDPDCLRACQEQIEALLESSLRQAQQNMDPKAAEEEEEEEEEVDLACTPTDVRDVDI

[2] = Table E, read-out: CDK2cyA IMAP/IC50 [umol l − 1]

Compound | IC50 ([1]; Table C, read-out: CDK2 IC50) | IC50 [1, 2] | IC50 (CDK4)
CC1CN(C2CCCC2)c2nc(Nc3ccc(N4CCN(C)CC4)cc3)ncc21 (stereo not shown) | > 10 µM | – | –
CCC(CC)n1ccc2cnc(Nc3ccc(N4CCN(C(C)=O)CC4)cc3)nc21 [Example 201] | – | < 10 µM | –
CCC(CC)n1ccc2cnc(Nc3ccc(N4CCNCC4)cc3)nc21 [Example 202, [7-(1-Ethyl-propyl)-7H-pyrrolo[2,3-d]pyrimidin-2-yl]-(4-piperazin-1-yl-phenyl)-amine] | – | < 10 µM | < 1 µM
CCC(C(=O)OC)n1ccc2cnc(Nc3ccc(N4CCN(C(C)=O)CC4)cc3)nc21 (stereo not shown) [Example 219] | – | < 10 µM | –
CCC(C(=O)OC)n1ccc2cnc(Nc3ccc(N4CCNCC4)cc3)nc21 (stereo not shown) [Example 221] | – | < 10 µM | –
CCC(C)n1ccc2cnc(Nc3ccc(N4CCN(C(C)=O)CC4)cc3)nc21 (stereo not shown) [Example 222] | – | < 10 µM | –
CCOC(=O)C(C(C)C)n1ccc2cnc(Nc3ccc(N4CCN(C(C)=O)CC4)cc3)nc21 (stereo not shown) [Example 223] | – | > 10 µM | –
CC(=O)N1CCN(c2ccc(Nc3ncc4ccn(C5CCCCC5=O)c4n3)cc2)CC1 (stereo not shown) [Example 226] | – | > 10 µM | –
CCC(C(N)=O)n1ccc2cnc(Nc3ccc(N4CCN(C(C)=O)CC4)cc3)nc21 (stereo not shown) [Example 227] | – | < 10 µM | –
CC(=O)N1CCN(c2ccc(Nc3ncc4ccn(C5CCOCC5)c4n3)cc2)CC1 [Example 228] | – | < 10 µM | –
CCC(C)n1ccc2cnc(Nc3ccc(N4CCNCC4)cc3)nc21 (stereo not shown) [Example 230] | – | < 10 µM | < 1 µM
CCOC(=O)C(C(C)C)n1ccc2cnc(Nc3ccc(N4CCNCC4)cc3)nc21 (stereo not shown) [Example 231] | – | > 10 µM | < 1 µM
CCC(C(N)=O)n1ccc2cnc(Nc3ccc(N4CCNCC4)cc3)nc21 (stereo not shown) [Example 234] | – | > 10 µM | –
c1cc(N2CCNCC2)ccc1Nc1ncc2ccn(C3CCOCC3)c2n1 [Example 235] | – | > 10 µM | –
CC(=O)N1CCN(c2ccc(Nc3ncc4ccn(C5CCC(C)CC5)c4n3)cc2)CC1 (stereo not shown) [Example 236] | – | < 1 µM | –
CCC(=O)N1CCN(c2ccc(Nc3ncc4ccn(C(CC)CC)c4n3)cc2)CC1 [Example 237] | – | < 10 µM | –
CC1CCC(n2ccc3cnc(Nc4ccc(N5CCNCC5)cc4)nc32)CC1 (stereo not shown) [Example 240] | – | < 10 µM | < 1 µM
CC(=O)N1CCN(c2ccc(Nc3ncc4ccn(C5CCCC(C)C5)c4n3)cc2)CC1 (stereo not shown) [Example 241] | – | < 10 µM | –
CC1CCCC(n2ccc3cnc(Nc4ccc(N5CCNCC5)cc4)nc32)C1 (stereo not shown) [Example 242] | – | < 10 µM | < 1 µM

Compound | IC50 ([1]; Table C, read-out: CDK2 IC50) | IC50 [1, 2] | IC50 (CDK4)
NC1CCC(n2ccc3cnc(Nc4ccc(N5CCNCC5)cc4)nc32)CC1 (stereo not shown) [Example 243] | – | < 1 µM | < 1 µM
OC1CCCC(n2ccc3cnc(Nc4ccc(N5CCNCC5)cc4)nc32)C1 (stereo not shown) [Example 244] | – | < 1 µM | < 1 µM
c1cc(N2CCNCC2)ccc1Nc1ncc2ccn(C34CC5CC(CC(C5)C3)C4)c2n1 [Example 245] | – | < 1 µM | < 1 µM
c1cc(N2CCNCC2)ccc1Nc1ncc2ccn(C3CCCCC3)c2n1 [Example 246] | – | < 1 µM | < 1 µM
O=C(O)[C@@H]1CCC(n2ccc3cnc(Nc4ccc(N5CCNCC5)cc4)nc32)C1 (stereo partly shown) [Example 248] | – | < 10 µM | < 1 µM
CN(C)CC1CCC(n2ccc3cnc(Nc4ccc(N5CCNCC5)cc4)nc32)C1 (stereo not shown) [Example 249] | – | < 10 µM | –
CC(=O)N1CCN(c2ccc(Nc3ncc4ccn(C5CCCC5)c4n3)nc2)CC1 [Example 252] | – | > 10 µM | –
CN1CCN(c2ccc(Nc3ncc4ccn(C5CCCC5)c4n3)cc2)CC1 [Example 253] | – | < 10 µM | –
CC(=O)N1CCN(c2ccc(Nc3ncc4ccn(C5CCCC5)c4n3)cc2)CC1 [Example 254] | – | < 1 µM | –
c1cc(N2CCNCC2)ccc1Nc1ncc2ccn(C3CCCC3)c2n1 [Example 256] | – | < 10 µM | < 1 µM
c1ncc(-c2ccc(Nc3ncc4ccn(C5CCCC5)c4n3)cc2)o1 [Example 258] | – | < 10 µM | > 10 µM
CCN(CC)c1ccc(Nc2ncc3ccn(C4CCCC4)c3n2)cc1 [Example 261] | – | < 10 µM | > 10 µM
CN(C)c1ccc(Nc2ncc3ccn(C4CCCC4)c3n2)cc1 [Example 262] | – | < 10 µM | > 10 µM
Cc1cn(C2CC2)c2nc(Nc3ccc(N4CCN(C)CC4)cc3)ncc12 [Example 270] | – | > 10 µM | –
Cc1cn(C2CC2)c2nc(Nc3ccc(N4CCNCC4)cn3)ncc12 [Example 271] | – | > 10 µM | –
CC(=O)N1CCN(c2ccc(Nc3ncc4c(C)cn(C5CCCCC5)c4n3)cc2)CC1 [Example 274] | – | > 10 µM | –
Cc1cn(C2CCCC2)c2nc(Nc3ccc(N4CCNCC4)nc3)ncc12 [Example 283] | – | > 10 µM | –
Cc1cn(C2CCCC2)c2nc(Nc3ccc(N4CCNCC4)c(F)c3)ncc12 [Example 285] | – | < 10 µM | –
Cc1cn(C2CCCC2)c2nc(Nc3ccc(N4CCN(S(C)(=O)=O)CC4)cc3)ncc12 [Example 286] | – | < 10 µM | –

Compound | IC50 ([1]; Table C, read-out: CDK2 IC50) | IC50 [1, 2] | IC50 (CDK4)
Cc1cn(C2CCCC2)c2nc(Nc3ccc(S(N)(=O)=O)cc3)ncc12 [Example 288] | – | < 1 µM | –
Cc1cn(C2CCCC2)c2nc(Nc3ccncc3)ncc12 [Example 298] | – | < 1 µM | –
Cc1cn(C2CCCC2)c2nc(Nc3cccnc3)ncc12 [Example 300] | – | < 1 µM | –
Cc1cn(-c2ccccn2)c2nc(Nc3ccc(N4CCNCC4)cn3)ncc12 [Example 320, (5-Methyl-7-pyridin-2-yl-7H-pyrrolo[2,3-d]pyrimidin-2-yl)-(5-piperazin-1-yl-pyridin-2-yl)-amine] | – | > 10 µM | –
Cc1cn(-c2nccs2)c2nc(Nc3ccc(N4CCNCC4)cn3)ncc12 [Example 321] | – | > 10 µM | –
Cc1cn(-c2cccnc2)c2nc(Nc3ccc(N4CCNCC4)cc3)ncc12 [Example 322] | – | > 10 µM | –
CCCCNC(=O)c1cc2cnc(Nc3ccc(N4CCNCC4)cc3)nc2n1C(CC)CC [Example 336] | – | > 10 µM | –
CCC(CC)n1c(C(=O)N2CCCC2)cc2cnc(Nc3ccc(N4CCNCC4)cc3)nc21 [Example 337] | – | > 10 µM | –
CCC(CC)n1c(C(=O)N2CCOCC2)cc2cnc(Nc3ccc(N4CCNCC4)cc3)nc21 [Example 343] | – | > 10 µM | –
CCC(CC)n1c(C(=O)NC2CCCC2)cc2cnc(Nc3ccc(N4CCNCC4)cc3)nc21 [Example 344] | – | > 10 µM | –
CCC(CC)n1c(CNC(C)C)cc2cnc(Nc3ccc(N4CCN(C(C)=O)CC4)cc3)nc21 [Example 366] | – | < 10 µM | –
CCC(CC)n1c(CNC(C)C)cc2cnc(Nc3ccc(N4CCNCC4)cc3)nc21 [Example 367] | – | < 10 µM | –
CCC(CC)n1c(C(=O)OC)cc2cnc(Nc3ccc(N4CCN(C(C)=O)CC4)cc3)nc21 [Example 373, 2-[4-(4-Acetyl-piperazin-1-yl)-phenylamino]-7-(1-ethyl-propyl)-7H-pyrrolo[2,3-d]pyrimidine-6-carboxylic acid methyl ester] | – | < 10 µM | –
CC(=O)c1c(C)c2cnc(Nc3ccc(N4CCNCC4)cn3)nc2n1C1CCOCC1 [Example 388] | – | > 10 µM | –
Cc1cc(-c2c(C)c3cnc(Nc4ccc(N5CCNCC5)cn4)nc3n2C2CCCC2)on1 [Example 405] | – | > 10 µM | –
Cc1cn(-c2ccccc2)c2nc(Nc3ccc(N4CCNCC4)cc3)ncc12 [Example 437] | – | > 10 µM | –
CCc1cn(C2CCCC2)c2nc(Nc3ccc(N4CCNCC4)cc3)ncc12 [Example 438] | – | < 10 µM | –
CC(C)c1cn(C2CCCC2)c2nc(Nc3ccc(N4CCNCC4)cn3)ncc12 [Example 440] | – | > 10 µM | –
